In patent US11039618B2, “Metam salts and polysulfide soil treatment” (Tessenderlo Kerley, Inc, priority 2016, dated 2021):

Assays:
Verticillium = experiment: Jar test 2015: Verticillium microsclerotia colonies in treated soil (soil moisture 35% w/w); format: cell-based, Verticillium dahliae; conditions: Metam 68 gal/acre (323 kg active/ha)
Method: These investigations were performed under laboratory conditions in an initial jar test. We also investigated the pathogen control efficacy of LSS treatments, at 30 gal/acre (90 pounds/acre or 101 Kg/ha of calcium polysulfide) and at 90 gal/acre (276 pounds/acre or 310 Kg/ha of calcium polysulfide), and combined Metam/LSS treatments using Sectagon® brand metam at 20 gal/acre Metam (84 pounds/acre or 94 Kg/ha of metam sodium) with 40 gal/acre LSS (122 pounds/acre or 138 Kg/ha of calcium polysulfide); and at 30 gal/acre Metam (126 pounds/acre or […] of metam sodium) with 20 gal/acre LSS (60 pounds/acre or 67 kg/ha of calcium polysulfide). […] This may be due to lower water saturation in the 2016 tests compared to the saturation in 2015 tests, which was near 100%.
The major difference between the 2015 tests and the 2016 tests was soil moisture. For the 2015 tests the soil moisture was set at 35% w/w (ca. 100% field capacity). For the 2016 tests, the soil moisture was set at 20% w/w (ca. 66% field capacity).
Differences in test protocol between 2015 and 2016 tests are summarized below, and colony counts per gram of dry soil for the 2015 tests are shown below.
2015: Soil Moisture 35% w/w (ca. 100% field capacity)
2016: Decided 2015 soil moisture was too high; reduced to 20% w/w. […]

V. dahliae = experiment: Field test near Moses Lake, Wash.: V. dahliae colonies in soil after shank treatment; parameters: species or system Verticillium dahliae; conditions: average of three sample sites, metam sodium 191 pounds/acre, calcium polysulfide 276 pounds/acre
Method: A field test was performed in small plots in a grower's location in near Moses Lake, Wash. using commercial equipment, shanking the product 8-9 inches into the ground, in February 2016. A few treated areas were sampled a few months after treatment. This field is believed to be low in pest pressure. […] The mixture is compatible as a ground application, including using standard tanks, hoses, nozzles, and shanks. It is believed the product will also be stable when added to water to form a dilute product, due to the sodium or potassium hydroxide in metam. Therefore, alkali sulfide salts need not be added.
Location 1 was treated with 45 gallons per acre of Sectagon®, the metam sodium solution, equivalent to 191 pounds metam sodium per acre. This is considered a standard treatment protocol. Section 2 was treated with only liquid lime sulfur, at 90 gallons per acre (276 pounds calcium polysulfide/acre). Section 3 was treated with 30 gallons per acre Sectagon® and 30 gallons per acre liquid lime sulfur (92 pounds calcium polysulfide and 127 pounds metam sodium per acre). The treatment chemicals were obtained from Tessenderlo Kerley. A sufficient time following the treatments, V. dahliae concentrations and black dot concentrations were determined at 4 inches depth and at 8 inches depth at three random sample sites in each treated plot. No controls were run, and the variability in samples were high. […]

Verticillium dahliae = experiment: Plate tests: Verticillium counts in treated greenhouse soil; format: cell-based; conditions: 20 gal./acre metam
Method: Seven days after treatment, one soil sample per replicate was taken. V. dahliae control efficacy was assessed according to the methods below. Soil mixture was dried two weeks under greenhouse conditions. The quantity of V. dahliae in the soil was/will be assessed by dry soil plating on semi-selective medium. Dry soil samples were crushed and sieved through a #20 mesh. A small portion of each sample was incubated on six NP-10 semi-selective plates with a 6-stage Impactor (Anderson Samplers Inc., Atlanta, Ga.), using stages 2 and 3. Semi-selective NP-10 medium was prepared according to Kabir et al. (2004) and incubated at 24° C. in the dark for four weeks after spreading 0.5 g of soil. After incubation, the remaining soil was be gently washed off the plates and the number of V. dahliae microsclerotia colonies were counted on each plate under a microscope. The number of microsclerotia colonies equals the quantity of V. dahliae in soil and were extrapolated to 1 g of soil.
Plate tests were performed on selected samples to determine the Verticillium counts in treated soil through Aug. 17, 2017. Plate tests were performed as described previously. The untreated control comparative sample 1 averaged 32.5 ms per gram of soil. For reasons not known, the water check comparative sample 2, with no active ingredients added, contained only 11.5 ms per gram of soil. […]

soilborne disease = conditions: about 40 gallons of metam sodium per acre (190 Kg/ha); commercial conditions; cited from earlier work

## CNC(=S)S [Metam, sodium methyldithiocarbamate]
Verticillium
  Microsclerotia (Verticillium) per gram of soil, ms/g, 2015: 3 ms/g
V. dahliae; mixture 92 + 127 pounds/acre
  averaged colonies of V. dahlia per gram of soil at four inches: 30 colonies per gram of soil
V. dahliae; mixture 92 + 127 pounds/acre (8 inch samples called suspect)
  averaged colonies of V. dahlia per gram of soil at eight inches: 3 colonies per gram of soil
Verticillium dahliae
  Verticillium dahliae population: 3 ms per gram of soil
Soilborne disease
  reduction of certain soilborne disease: ~70%
